Measurements reported in ChEMBL document CHEMBL1201862, “PubChem BioAssay data set” (2004).
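Dose response: 5 concentrations. Exposure: 48 h. Format: 96-well plates. Endpoint: linear interpolation; highest concentration if not reached. GI50 marks 50% less growth.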 Calls of active or inactive are those of the source. No stated cut-off is given here; in the data, active = GI50 up to about 1.1 µM and inactive = higher.

Tests used:
Assay in all cases: NCI tumour cell line growth inhibition, 48 h
COLO 205 = system: COLO 205
DU-145 = system: DU-145
EKVX = system: EKVX
HCC 2998 = system: HCC 2998
HL-60 = system: HL-60
Hs-578T = system: Hs-578T
LOX IMVI = system: LOX IMVI
M14 = system: M14
MDA-MB-231 = system: MDA-MB-231
Malme-3M = system: Malme-3M
NCI-H522 = system: NCI-H522
NCI/ADR-RES = system: NCI/ADR-RES
OVCAR-5 = system: OVCAR-5
OVCAR-8 = system: OVCAR-8
SF-268 = system: SF-268
SK-MEL-2 = system: SK-MEL-2
T47D = system: T47D
U-251 = system: U-251
SF-539 = system: SF-539
SK-MEL-5 = system: SK-MEL-5

Compound | GI50 (COLO 205) | GI50 (DU-145) | GI50 (EKVX) | GI50 (HCC 2998) | GI50 (HL-60) | GI50 (Hs-578T) | GI50 (LOX IMVI) | GI50 (M14) | GI50 (MDA-MB-231) | GI50 (Malme-3M) | GI50 (NCI-H522) | GI50 (NCI/ADR-RES) | GI50 (OVCAR-5) | GI50 (OVCAR-8) | GI50 (SF-268) | GI50 (SK-MEL-2) | GI50 (T47D) | GI50 (U-251) | GI50 (SF-539) | GI50 (SK-MEL-5)
CC#CC#C/C=C1/O[C@]2(CCC(OC(C)=O)CO2)[C@@H]2O[C@H]12 (stereo not given in full) | 15.1 µM (inactive) | 30.5 µM (inactive) | 31.5 µM (inactive) | 18.5 µM (inactive) | 18.4 µM (inactive) | 40.3 µM (inactive) | 15.1 µM (inactive) | 18.4 µM (inactive) | 23 µM (inactive) | 14.7 µM (inactive) | 15.3 µM (inactive) | 21.7 µM (inactive) | 30.5 µM (inactive) | 32.8 µM (inactive) | 27.8 µM (inactive) | 16.8 µM (inactive) | 15.3 µM (inactive) | 17.9 µM (inactive) |  | 
COC(=O)/C(C)=N/N=C(\S)SC |  | 24.3 µM (inactive) | > 100 µM (inactive) | 40.6 µM (inactive) | 0.105 µM (active) | 28.8 µM (inactive) | 37.2 µM (inactive) | 23.2 µM (inactive) | 46.6 µM (inactive) |  | 22.7 µM (inactive) | 30 µM (inactive) | 80.2 µM (inactive) | 36.4 µM (inactive) | 21.8 µM (inactive) | 31 µM (inactive) | 18.1 µM (inactive) | 38.5 µM (inactive) | 82.6 µM (inactive) | 29.2 µM (inactive)
CCCCNc1c(CN)cnc2cc(Cl)ccc12 | 7.48 µM (inactive) | 28.1 µM (inactive) | 3.79 µM (inactive) | 2.73 µM (inactive) | 0.394 µM (active) | 17.6 µM (inactive) | 15.4 µM (inactive) | 20 µM (inactive) | 15.3 µM (inactive) | 19.2 µM (inactive) | 18.8 µM (inactive) | 16.2 µM (inactive) | 16.6 µM (inactive) | 18.2 µM (inactive) | 23.6 µM (inactive) | 17.8 µM (inactive) | 19.2 µM (inactive) | 16.4 µM (inactive) |  | 15.1 µM (inactive)
Cc1cccc2c(N)c3cccc(C(=O)NCCN(C)C)c3nc12 | 0.0315 µM (active) | 0.0188 µM (active) | 0.0583 µM (active) | 0.027 µM (active) | < 0.01 µM (active) | 0.207 µM (active) | < 0.033 µM (active) | 0.143 µM (active) | 0.0538 µM (active) | 0.173 µM (active) | < 0.0176 µM (active) | 0.373 µM (active) | 0.0935 µM (active) | 0.0695 µM (active) | < 0.0265 µM (active) | 0.231 µM (active) | 0.0378 µM (active) | < 0.0302 µM (active) |  | 0.114 µM (active)
CC1(C)C2CCC1(C)C(OC(=O)/C=C/C(=O)OC1CC3CCC1(C)C3(C)C)C2 (stereo not given) | 75.2 µM (inactive) | > 100 µM (inactive) | > 100 µM (inactive) | 64.4 µM (inactive) | 16.9 µM (inactive) | 63 µM (inactive) | 21.7 µM (inactive) | 76.9 µM (inactive) | > 100 µM (inactive) |  | 41 µM (inactive) | > 100 µM (inactive) | > 100 µM (inactive) | > 100 µM (inactive) | > 100 µM (inactive) | 61.7 µM (inactive) | > 100 µM (inactive) | 46.1 µM (inactive) | > 100 µM (inactive) | 17.9 µM (inactive)
O=C(CC(=O)N(C(=O)/C=C\c1ccccc1)c1ccc(Cl)cc1)N1N=C(c2ccccc2)C(/N=N/c2cccc([N+](=O)[O-])c2)C1=O (stereo not given) | 3.45 µM (inactive) | 13.3 µM (inactive) | 16.9 µM (inactive) | 3.87 µM (inactive) | 2.84 µM (inactive) | 18.4 µM (inactive) | 2.98 µM (inactive) | 7.08 µM (inactive) | 0.971 µM (active) | 11.3 µM (inactive) |  | 2.18 µM (inactive) | 48.9 µM (inactive) | 3.78 µM (inactive) | 4.23 µM (inactive) |  | 4.2 µM (inactive) | 5.82 µM (inactive) | 6.07 µM (inactive) | 
